Among the data in ChEMBL document CHEMBL5512638, “Novel pyrrole based CB2 agonists: New insights on CB2 receptor role in regulating neurotransmitters' tone” (Eur J Med Chem, 2024) are IC50 and Ki values, retold here.

What all share (assay type): cell membranes
Assay [1] deals with T1, Cannabinoid receptor 2 (Homo sapiens, UniProt P34972). The assay is described as follows: Displacement of [3H]CP55940 from recombinant human CB2 receptor expressed in HEK293 cell membrane incubated for 90 mins by competition binding assay. For orientation: Loss of bound radioactivity is the signal in a displacement assay; it reports binding, not function.
The target in assay [2] is T2, Cannabinoid receptor 1 (Homo sapiens, UniProt P21554). The assay is described as follows: Displacement of [3H]CP55940 from recombinant human CB1 receptor expressed in HEK293 cell membrane incubated for 90 mins by competition binding assay.
The target in assay [3] is T1, Cannabinoid receptor 2. The assay is described as follows: Displacement of [3H]CP55940 from recombinant human CB2 receptor expressed in HEK293 cell membrane assessed as inhibition constant incubated for 90 mins by competition binding assay.
In assay [4] the target is T2, Cannabinoid receptor 1. The assay is described as follows: Displacement of [3H]CP55940 from recombinant human CB1 receptor expressed in HEK293 cell membrane assessed as inhibition constant incubated for 90 mins by competition binding assay.

T2 sequence (P21554 whole entry): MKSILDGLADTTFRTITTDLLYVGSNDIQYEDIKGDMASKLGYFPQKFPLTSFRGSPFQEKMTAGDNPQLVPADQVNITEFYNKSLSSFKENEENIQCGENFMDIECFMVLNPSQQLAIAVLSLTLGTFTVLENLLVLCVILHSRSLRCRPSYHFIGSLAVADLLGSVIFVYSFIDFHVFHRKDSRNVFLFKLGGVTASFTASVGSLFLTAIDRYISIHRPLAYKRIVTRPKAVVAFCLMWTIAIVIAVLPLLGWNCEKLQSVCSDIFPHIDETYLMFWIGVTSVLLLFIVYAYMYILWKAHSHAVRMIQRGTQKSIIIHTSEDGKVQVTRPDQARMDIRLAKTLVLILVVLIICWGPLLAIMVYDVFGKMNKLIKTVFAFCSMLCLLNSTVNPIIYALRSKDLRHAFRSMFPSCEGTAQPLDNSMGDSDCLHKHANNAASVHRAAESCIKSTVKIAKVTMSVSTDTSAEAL
T1 sequence (P34972 whole entry): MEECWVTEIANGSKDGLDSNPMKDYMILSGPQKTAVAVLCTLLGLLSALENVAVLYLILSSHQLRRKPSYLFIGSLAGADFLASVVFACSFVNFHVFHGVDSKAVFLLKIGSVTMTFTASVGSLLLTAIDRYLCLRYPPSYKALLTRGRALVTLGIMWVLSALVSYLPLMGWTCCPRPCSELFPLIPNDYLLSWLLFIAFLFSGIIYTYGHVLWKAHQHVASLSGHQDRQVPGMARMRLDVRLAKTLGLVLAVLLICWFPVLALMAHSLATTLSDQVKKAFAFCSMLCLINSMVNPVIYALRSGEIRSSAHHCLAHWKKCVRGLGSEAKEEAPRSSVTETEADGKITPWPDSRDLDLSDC

Usually IC50 stands for the concentration at which inhibition is half-maximal. By Ki is commonly meant the dissociation constant of the complex between target and ligand, obtained from inhibition or displacement. For `O=C(NCc1ccccc1)c1cccn1Cc1ccc(F)cc1`, the IC50 is 4.6 µM on Cannabinoid receptor 2 [1] (read-out: IC50) and over 10 µM on Cannabinoid receptor 1 [2] (read-out: IC50). Also, the Ki at Cannabinoid receptor 2 [3] (read-out: Ki) is 0.706 µM; at Cannabinoid receptor 1 [4] (read-out: Ki) it was over 10 µM.
On to `Nc1ccc(CNC(=O)c2cccn2Cc2ccc(F)cc2)cc1`, for which the IC50 on Cannabinoid receptor 2 [1] (read-out: IC50) and at Cannabinoid receptor 1 [2] (read-out: IC50) was over 10 µM throughout. Further, the Ki at Cannabinoid receptor 2 [3] (read-out: Ki) and on Cannabinoid receptor 1 [4] (read-out: Ki) was over 10 µM throughout.
Take `Cc1ccc(S(=O)(=O)n2cccc2C(=O)c2ccc(Cl)cc2)cc1`: the IC50 result on Cannabinoid receptor 2 [1] (hek293) and on Cannabinoid receptor 1 [2] (hek293) was “Not Determined(Insoluble)” in each case. For the same molecule, the Ki result at Cannabinoid receptor 2 [3] (hek293) and on Cannabinoid receptor 1 [4] (hek293) was “Not Determined(Insoluble)” in each case.
Take `CC(=O)OCCn1cccc1C(=O)c1ccccc1Cl`: the IC50 on Cannabinoid receptor 2 [1] (read-out: IC50) and on Cannabinoid receptor 1 [2] (read-out: IC50) was over 10 µM throughout. Moreover, the inhibitory constant (Ki) at Cannabinoid receptor 2 [3] (read-out: Ki) and at Cannabinoid receptor 1 [4] (read-out: Ki) was over 10 µM in each case.
Regarding `O=C(CCO)N[C@@H](Cc1ccc(O)cc1)C(=O)Nc1ccc(O)cc1`, the IC50 at Cannabinoid receptor 2 [1] (read-out: IC50) and on Cannabinoid receptor 1 [2] (read-out: IC50) was over 10 µM in each case. For the same molecule, the Ki at Cannabinoid receptor 2 [3] (read-out: Ki) and on Cannabinoid receptor 1 [4] (read-out: Ki) was over 10 µM in each case.
For the molecule `O=C(O)CCCn1cccc1C(=O)c1ccccc1Cl`, the IC50 at Cannabinoid receptor 2 [1] (read-out: IC50) and at Cannabinoid receptor 1 [2] (read-out: IC50) was over 10 µM throughout. In addition, the Ki at Cannabinoid receptor 2 [3] (read-out: Ki) and at Cannabinoid receptor 1 [4] (read-out: Ki) was over 10 µM throughout.
With `O=C(O)CC(=O)N[C@@H](Cc1c[nH]c2ccccc12)C(=O)Nc1ccc(O)cc1`, the IC50 on Cannabinoid receptor 2 [1] (read-out: IC50) and at Cannabinoid receptor 1 [2] (read-out: IC50) was over 10 µM each time. Also, the Ki at Cannabinoid receptor 2 [3] (read-out: Ki) and at Cannabinoid receptor 1 [4] (read-out: Ki) was over 10 µM throughout.
As for `O=C(c1ccccc1Cl)c1cccn1CCCCO`, the IC50 on Cannabinoid receptor 2 [1] (read-out: IC50) and on Cannabinoid receptor 1 [2] (read-out: IC50) was over 10 µM in each case. Further, the inhibitory constant (Ki) at Cannabinoid receptor 2 [3] (read-out: Ki) and at Cannabinoid receptor 1 [4] (read-out: Ki) was over 10 µM throughout.
For the molecule `O=C(NCCO)[C@@H]1Cc2ccccc2CN1C(=O)c1ccc(O)cc1`, the IC50 on Cannabinoid receptor 2 [1] (read-out: IC50) and at Cannabinoid receptor 1 [2] (read-out: IC50) was over 10 µM throughout. For the same molecule, the Ki at Cannabinoid receptor 2 [3] (read-out: Ki) and at Cannabinoid receptor 1 [4] (read-out: Ki) was over 10 µM throughout.
`O=C(Nc1cccc(CO)c1)c1cccn1Cc1ccc(F)cc1`: the results for the IC50 at Cannabinoid receptor 2 [1] (read-out: IC50) and on Cannabinoid receptor 1 [2] (read-out: IC50) were 1.59 µM and over 10 µM, respectively. Moreover, the Ki at Cannabinoid receptor 2 [3] (read-out: Ki) is 0.25 µM; on Cannabinoid receptor 1 [4] (read-out: Ki), over 10 µM.
Take `CC(=O)Oc1cccc(Cn2cccc2C(=O)c2ccccc2Cl)c1`: the IC50 at Cannabinoid receptor 2 [1] (read-out: IC50) was 9.83 µM; at Cannabinoid receptor 1 [2] (read-out: IC50), over 10 µM. Further, the Ki at Cannabinoid receptor 2 [3] (read-out: Ki) was 1.56 µM; at Cannabinoid receptor 1 [4] (read-out: Ki) it was over 10 µM.
For `O=C(NCc1ccco1)c1cccn1Cc1ccc(-c2ccccc2)cc1`, the IC50 on Cannabinoid receptor 2 [1] (read-out: IC50) is 1.47 µM; on Cannabinoid receptor 1 [2] (read-out: IC50) it was over 10 µM. Further, the Ki at Cannabinoid receptor 2 [3] (read-out: Ki) is 0.23 µM; at Cannabinoid receptor 1 [4] (read-out: Ki), over 10 µM.
As to `COC(=O)CCCn1cccc1C(=O)c1ccccc1Cl`, the IC50 at Cannabinoid receptor 2 [1] (read-out: IC50) and on Cannabinoid receptor 1 [2] (read-out: IC50) was over 10 µM each time. Moreover, the inhibitory constant (Ki) on Cannabinoid receptor 2 [3] (read-out: Ki) and at Cannabinoid receptor 1 [4] (read-out: Ki) was over 10 µM in each case.
Regarding `O=C(OCCCCn1cccc1C(=O)c1ccccc1Cl)c1ccccc1`, the IC50 on Cannabinoid receptor 2 [1] (read-out: IC50) and at Cannabinoid receptor 1 [2] (read-out: IC50) was over 10 µM each time. Further, the inhibitory constant (Ki) at Cannabinoid receptor 2 [3] (read-out: Ki) and on Cannabinoid receptor 1 [4] (read-out: Ki) was over 10 µM throughout.
Regarding `Cc1ccc(S(=O)(=O)n2cccc2C(=O)c2ccccc2)cc1`, the IC50 on Cannabinoid receptor 2 [1] (read-out: IC50) and at Cannabinoid receptor 1 [2] (read-out: IC50) was over 10 µM each time. For the same molecule, the Ki at Cannabinoid receptor 2 [3] (read-out: Ki) and on Cannabinoid receptor 1 [4] (read-out: Ki) was over 10 µM each time.
`CC(=O)Oc1ccc(Cn2cccc2C(=O)c2ccccc2Cl)cc1`: the 50% inhibitory concentration (IC50) at Cannabinoid receptor 2 [1] (read-out: IC50) and at Cannabinoid receptor 1 [2] (read-out: IC50) was over 10 µM in each case. Also, the Ki on Cannabinoid receptor 2 [3] (read-out: Ki) and at Cannabinoid receptor 1 [4] (read-out: Ki) was over 10 µM throughout.
As for `CC(=O)OCCCCn1cccc1C(=O)c1ccccc1Cl`, the values for the concentration for half-maximal inhibition (IC50) on Cannabinoid receptor 2 [1] (read-out: IC50) and at Cannabinoid receptor 1 [2] (read-out: IC50) were 7.91 µM and over 10 µM, respectively. For the same molecule, the Ki is 1.26 µM on Cannabinoid receptor 2 [3] (read-out: Ki) and over 10 µM on Cannabinoid receptor 1 [4] (read-out: Ki).
`Cc1ccc(CNC(=O)c2cccn2Cc2ccc(F)cc2)cc1`: the IC50 on Cannabinoid receptor 2 [1] (read-out: IC50) and on Cannabinoid receptor 1 [2] (read-out: IC50) was over 10 µM each time. Moreover, the Ki on Cannabinoid receptor 2 [3] (read-out: Ki) and at Cannabinoid receptor 1 [4] (read-out: Ki) was over 10 µM throughout.
On to `CC(=O)OCCCCn1cccc1C(=O)NCc1ccccc1`, for which the IC50 on Cannabinoid receptor 2 [1] (read-out: IC50) and at Cannabinoid receptor 1 [2] (read-out: IC50) was over 10 µM each time. The Ki on Cannabinoid receptor 2 [3] (read-out: Ki) and on Cannabinoid receptor 1 [4] (read-out: Ki) was over 10 µM each time.
As for `O=C(CCO)N[C@@H](Cc1c[nH]c2ccccc12)C(=O)Nc1ccc(O)cc1`, the IC50 at Cannabinoid receptor 2 [1] (read-out: IC50) and at Cannabinoid receptor 1 [2] (read-out: IC50) was over 10 µM throughout. For the same molecule, the Ki on Cannabinoid receptor 2 [3] (read-out: Ki) and on Cannabinoid receptor 1 [4] (read-out: Ki) was over 10 µM each time.
With `CCOC(=O)CCCn1cccc1C(=O)c1ccccc1Cl`, the IC50 at Cannabinoid receptor 2 [1] (read-out: IC50) and on Cannabinoid receptor 1 [2] (read-out: IC50) was over 10 µM throughout. For the same molecule, the Ki at Cannabinoid receptor 2 [3] (read-out: Ki) and on Cannabinoid receptor 1 [4] (read-out: Ki) was over 10 µM each time.
For `CC(=O)NCCCCn1cccc1C(=O)c1ccccc1Cl`, the IC50 on Cannabinoid receptor 2 [1] (read-out: IC50) and at Cannabinoid receptor 1 [2] (read-out: IC50) was over 10 µM in each case. Besides, the Ki on Cannabinoid receptor 2 [3] (read-out: Ki) and on Cannabinoid receptor 1 [4] (read-out: Ki) was over 10 µM throughout.
`O=C(c1ccccc1Cl)c1cccn1CC12CC3CC(CC(C3)C1)C2`: the IC50 was 4.22 µM at Cannabinoid receptor 2 [1] (read-out: IC50) and over 10 µM on Cannabinoid receptor 1 [2] (read-out: IC50). Further, the figures for the Ki on Cannabinoid receptor 2 [3] (read-out: Ki) and on Cannabinoid receptor 1 [4] (read-out: Ki) were 0.67 µM and over 10 µM, respectively.
Turning to `O=C(c1ccccc1Cl)c1cccn1Cc1ccc(O)cc1`, the IC50 at Cannabinoid receptor 2 [1] (read-out: IC50) and at Cannabinoid receptor 1 [2] (read-out: IC50) was over 10 µM each time. Further, the Ki at Cannabinoid receptor 2 [3] (read-out: Ki) and at Cannabinoid receptor 1 [4] (read-out: Ki) was over 10 µM each time.
`N=C(N)NCCCn1cccc1C(=O)c1ccccc1Cl`: the IC50 on Cannabinoid receptor 2 [1] (read-out: IC50) and at Cannabinoid receptor 1 [2] (read-out: IC50) was over 10 µM each time. Also, the Ki at Cannabinoid receptor 2 [3] (read-out: Ki) and on Cannabinoid receptor 1 [4] (read-out: Ki) was over 10 µM each time.
Regarding `O=C(NCc1cccc(O)c1)c1cccn1Cc1ccc(F)cc1`, the IC50 at Cannabinoid receptor 2 [1] (read-out: IC50) and at Cannabinoid receptor 1 [2] (read-out: IC50) was over 10 µM in each case. For the same molecule, the Ki at Cannabinoid receptor 2 [3] (read-out: Ki) and on Cannabinoid receptor 1 [4] (read-out: Ki) was over 10 µM each time.
Consider `O=C(c1ccc(Cl)cc1)c1cccn1Cc1ccco1`, for which the IC50 at Cannabinoid receptor 2 [1] (read-out: IC50) and at Cannabinoid receptor 1 [2] (read-out: IC50) was over 10 µM each time. Besides, the Ki at Cannabinoid receptor 2 [3] (read-out: Ki) and on Cannabinoid receptor 1 [4] (read-out: Ki) was over 10 µM in each case.
Turning to `O=C(CO)Nc1cccc(NC(=O)c2cccnc2)c1`, the IC50 on Cannabinoid receptor 2 [1] (read-out: IC50) and at Cannabinoid receptor 1 [2] (read-out: IC50) was over 10 µM in each case. In addition, the Ki on Cannabinoid receptor 2 [3] (read-out: Ki) and on Cannabinoid receptor 1 [4] (read-out: Ki) was over 10 µM throughout.
For `O=C(NCc1ccc(O)cc1)c1cccn1Cc1ccc(F)cc1`, the IC50 at Cannabinoid receptor 2 [1] (read-out: IC50) and at Cannabinoid receptor 1 [2] (read-out: IC50) was over 10 µM throughout. Besides, the Ki at Cannabinoid receptor 2 [3] (read-out: Ki) and on Cannabinoid receptor 1 [4] (read-out: Ki) was over 10 µM throughout.
On to `Cc1ccc(C(=O)c2cccn2S(=O)(=O)c2ccc(C)cc2)cc1`, for which the half-inhibitory concentration (IC50) on Cannabinoid receptor 2 [1] (read-out: IC50) and at Cannabinoid receptor 1 [2] (read-out: IC50) was over 10 µM throughout. Also, the Ki on Cannabinoid receptor 2 [3] (read-out: Ki) and on Cannabinoid receptor 1 [4] (read-out: Ki) was over 10 µM in each case.
Take `Cc1ccc(Cn2cccc2C(=O)c2ccc(Cl)cc2)cc1`: the IC50 on Cannabinoid receptor 2 [1] (read-out: IC50) and at Cannabinoid receptor 1 [2] (read-out: IC50) was over 10 µM throughout. Besides, the Ki at Cannabinoid receptor 2 [3] (read-out: Ki) and on Cannabinoid receptor 1 [4] (read-out: Ki) was over 10 µM in each case.
`CCCCCn1cccc1C(=O)c1ccc(C)cc1`: the IC50 on Cannabinoid receptor 2 [1] (read-out: IC50) and on Cannabinoid receptor 1 [2] (read-out: IC50) was over 10 µM each time. Also, the Ki on Cannabinoid receptor 2 [3] (read-out: Ki) and at Cannabinoid receptor 1 [4] (read-out: Ki) was over 10 µM in each case.
In the case of `O=C(Nc1ccc(O)cc1)[C@@H]1Cc2ccccc2CN1C(=O)CCO`, the IC50 on Cannabinoid receptor 2 [1] (read-out: IC50) and at Cannabinoid receptor 1 [2] (read-out: IC50) was over 10 µM throughout. For the same molecule, the Ki at Cannabinoid receptor 2 [3] (read-out: Ki) and on Cannabinoid receptor 1 [4] (read-out: Ki) was over 10 µM throughout.
As to `Nc1cccc(C(=O)Nc2cccc(NC(=O)CO)c2)c1`, the IC50 at Cannabinoid receptor 2 [1] (read-out: IC50) and at Cannabinoid receptor 1 [2] (read-out: IC50) was over 10 µM throughout. For the same molecule, the Ki on Cannabinoid receptor 2 [3] (read-out: Ki) and at Cannabinoid receptor 1 [4] (read-out: Ki) was over 10 µM throughout.
As to `O=C(c1ccccc1Cl)c1cccn1Cc1cccc(O)c1`, the IC50 at Cannabinoid receptor 2 [1] (read-out: IC50) and on Cannabinoid receptor 1 [2] (read-out: IC50) was over 10 µM throughout. Further, the Ki on Cannabinoid receptor 2 [3] (read-out: Ki) and on Cannabinoid receptor 1 [4] (read-out: Ki) was over 10 µM each time.
